Reference: US20240092790A1, “DIHYDROFUROPYRIDINE DERIVATIVES AS RHO- KINASE INHIBITORS” (CHIESI FARMACEUTICI S.P.A., priority 2020, published 2024)
pKi: −log10 of the molar value.

How the values were obtained:
Type in all cases: biochemical
ROCK1 = ROCK1 (Homo sapiens, UniProt Q13464); test: In vitro inhibitory activity assay ROCK1 (ADP-Glo); conditions: ATP 200 μM, Cheng-Prusoff; read-out: ROCK 1 (Ki, range of activity)
Protocol: (§1) In Vitro Inhibitory Activity Assay Description ROCK1 and ROCK2
(§2) The effectiveness of compounds of the present invention to inhibit Rho kinase activity can be determined in a 10 μl assay containing 40 mM Tris pH7.5, 20 mM MgCl2 0.1 mg/mL BSA, 50 μM DTT and 2.5 μM peptide substrate (Myelin Basic Protein) using an ADP-Glo kit (Promega). Compounds were dissolved in DMSO such that the final concentration of DMSO was 1% in the assay. All reactions/incubations are performed at 25° C. Compound (2 ul) and either Rho kinase 1 or 2 (4 μl) were mixed and incubated for 30 mins. Reactions were initiated by addition of ATP (4 μl) such that the final concentration of ATP in the assay was 200 μM. After a 1 hour incubation 10 μl of ADP-Glo Reagent was added and after a further 1 hour incubation 20 ul of Kinase Detection Buffer was added and the mixture incubated for a further 45 minutes. The luminescent signal was measured on a luminometer. […] Compounds were tested in dose-response format and the inhibition of kinase activity was calculated at each concentration of compound. To determine the IC50 (concentration of compound required to inhibit 50% of the enzyme activity) data were fit to a plot of % inhibition vs Log 10 compound concentration using a sigmoidal fit with a variable slope and fixing the maximum to 100% and the minimum to 0%. To determine the Ki values the Cheng-Prusoff equation was utilized (Ki=IC50/(1+[S]/Km).

ROCK2 = ROCK2 (Homo sapiens, UniProt O75116); test: In vitro inhibitory activity assay ROCK2 (ADP-Glo); conditions: ATP 200 μM, Cheng-Prusoff; read-out: ROCK2 (Ki, range of activity)
Sequence of ROCK2 (O75116 whole entry): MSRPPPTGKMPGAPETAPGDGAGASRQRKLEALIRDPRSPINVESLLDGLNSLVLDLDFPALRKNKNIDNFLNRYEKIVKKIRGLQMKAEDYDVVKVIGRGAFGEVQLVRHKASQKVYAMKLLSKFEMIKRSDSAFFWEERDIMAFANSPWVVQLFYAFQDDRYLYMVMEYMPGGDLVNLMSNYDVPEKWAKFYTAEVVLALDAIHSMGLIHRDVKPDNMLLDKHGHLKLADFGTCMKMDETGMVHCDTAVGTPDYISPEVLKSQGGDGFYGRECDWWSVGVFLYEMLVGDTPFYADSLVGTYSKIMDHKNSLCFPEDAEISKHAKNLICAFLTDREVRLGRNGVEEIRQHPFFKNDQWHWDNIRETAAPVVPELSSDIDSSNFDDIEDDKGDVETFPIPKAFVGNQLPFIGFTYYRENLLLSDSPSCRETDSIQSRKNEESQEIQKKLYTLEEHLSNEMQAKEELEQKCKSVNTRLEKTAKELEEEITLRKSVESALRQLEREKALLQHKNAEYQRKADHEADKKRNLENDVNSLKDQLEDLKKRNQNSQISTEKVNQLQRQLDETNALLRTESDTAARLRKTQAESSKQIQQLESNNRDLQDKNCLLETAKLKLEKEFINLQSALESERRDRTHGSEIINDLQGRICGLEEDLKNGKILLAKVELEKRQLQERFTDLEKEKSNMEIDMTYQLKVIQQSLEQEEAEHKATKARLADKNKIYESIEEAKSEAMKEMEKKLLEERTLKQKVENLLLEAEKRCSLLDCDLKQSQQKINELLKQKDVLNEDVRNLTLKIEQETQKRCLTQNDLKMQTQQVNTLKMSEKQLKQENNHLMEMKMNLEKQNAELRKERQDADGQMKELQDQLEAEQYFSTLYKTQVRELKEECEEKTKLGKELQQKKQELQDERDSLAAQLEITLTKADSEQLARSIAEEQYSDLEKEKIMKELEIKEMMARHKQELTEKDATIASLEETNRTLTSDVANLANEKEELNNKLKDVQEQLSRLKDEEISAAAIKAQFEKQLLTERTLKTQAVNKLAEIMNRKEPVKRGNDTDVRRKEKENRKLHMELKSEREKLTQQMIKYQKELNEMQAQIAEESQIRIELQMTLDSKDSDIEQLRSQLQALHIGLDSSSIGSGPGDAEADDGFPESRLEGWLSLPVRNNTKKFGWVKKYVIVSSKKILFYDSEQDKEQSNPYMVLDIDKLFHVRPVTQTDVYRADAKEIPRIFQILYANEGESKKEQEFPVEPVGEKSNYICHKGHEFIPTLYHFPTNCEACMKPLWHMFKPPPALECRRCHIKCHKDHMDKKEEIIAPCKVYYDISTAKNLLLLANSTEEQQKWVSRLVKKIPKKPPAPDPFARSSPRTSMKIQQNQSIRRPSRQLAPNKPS
Protocol: as §1, §2

PKA = PKA (Homo sapiens, UniProt P17612); test: In vitro inhibitory activity assay for PKA (ADP-Glo), reported as selectivity ratio vs ROCK2; conditions: Ki value for PKA divided by Ki value of ROCK2
Protocol: In Vitro Inhibitory Activity Assay Description for PKA
The effectiveness of compounds of the present invention to inhibit PKA activity can be determined in a 10 μl assay containing 40 mM Tris pH7.5, 20 mM MgCl2 0.1 mg/ml BSA, 50 μM DTT and 260 μM peptide substrate (kemptide) using an ADP-Glo kit (Promega). Compounds were dissolved in DMSO such that the final concentration of DMSO was 1% in the assay. All reactions/incubations are performed at 25° C. Compound and PKA enzyme (6 μl) were mixed and incubated for 30 mins. Reactions were initiated by addition of ATP (4 μl) such that the final concentration of ATP in the assay was 10 μM. After a 30 minute incubation 10p of ADP-Glo Reagent was added and after a further 1 hour incubation 20 μl of Kinase Detection Buffer was added and the mixture incubated for a further 45 minutes. The luminescent signal was measured on a luminometer. […] Compounds were tested in dose-response format and the inhibition of kinase activity was calculated at each concentration of compound. To determine the IC50 (concentration of compound required to inhibit 50% of the enzyme activity) data were fit to a plot of % inhibition vs Log10 compound concentration using a sigmoidal fit with a variable slope and fixing the maximum to 100% and the minimum to 0%. To determine the Ki values the Cheng-Prusoff equation was utilized (Ki=IC50/(1+[S]/Km).
In vitro inhibitory activities for PKA were reported as selectivity ratio vs. ROCK-2.

Sequence of ROCK1 (Q13464 whole entry): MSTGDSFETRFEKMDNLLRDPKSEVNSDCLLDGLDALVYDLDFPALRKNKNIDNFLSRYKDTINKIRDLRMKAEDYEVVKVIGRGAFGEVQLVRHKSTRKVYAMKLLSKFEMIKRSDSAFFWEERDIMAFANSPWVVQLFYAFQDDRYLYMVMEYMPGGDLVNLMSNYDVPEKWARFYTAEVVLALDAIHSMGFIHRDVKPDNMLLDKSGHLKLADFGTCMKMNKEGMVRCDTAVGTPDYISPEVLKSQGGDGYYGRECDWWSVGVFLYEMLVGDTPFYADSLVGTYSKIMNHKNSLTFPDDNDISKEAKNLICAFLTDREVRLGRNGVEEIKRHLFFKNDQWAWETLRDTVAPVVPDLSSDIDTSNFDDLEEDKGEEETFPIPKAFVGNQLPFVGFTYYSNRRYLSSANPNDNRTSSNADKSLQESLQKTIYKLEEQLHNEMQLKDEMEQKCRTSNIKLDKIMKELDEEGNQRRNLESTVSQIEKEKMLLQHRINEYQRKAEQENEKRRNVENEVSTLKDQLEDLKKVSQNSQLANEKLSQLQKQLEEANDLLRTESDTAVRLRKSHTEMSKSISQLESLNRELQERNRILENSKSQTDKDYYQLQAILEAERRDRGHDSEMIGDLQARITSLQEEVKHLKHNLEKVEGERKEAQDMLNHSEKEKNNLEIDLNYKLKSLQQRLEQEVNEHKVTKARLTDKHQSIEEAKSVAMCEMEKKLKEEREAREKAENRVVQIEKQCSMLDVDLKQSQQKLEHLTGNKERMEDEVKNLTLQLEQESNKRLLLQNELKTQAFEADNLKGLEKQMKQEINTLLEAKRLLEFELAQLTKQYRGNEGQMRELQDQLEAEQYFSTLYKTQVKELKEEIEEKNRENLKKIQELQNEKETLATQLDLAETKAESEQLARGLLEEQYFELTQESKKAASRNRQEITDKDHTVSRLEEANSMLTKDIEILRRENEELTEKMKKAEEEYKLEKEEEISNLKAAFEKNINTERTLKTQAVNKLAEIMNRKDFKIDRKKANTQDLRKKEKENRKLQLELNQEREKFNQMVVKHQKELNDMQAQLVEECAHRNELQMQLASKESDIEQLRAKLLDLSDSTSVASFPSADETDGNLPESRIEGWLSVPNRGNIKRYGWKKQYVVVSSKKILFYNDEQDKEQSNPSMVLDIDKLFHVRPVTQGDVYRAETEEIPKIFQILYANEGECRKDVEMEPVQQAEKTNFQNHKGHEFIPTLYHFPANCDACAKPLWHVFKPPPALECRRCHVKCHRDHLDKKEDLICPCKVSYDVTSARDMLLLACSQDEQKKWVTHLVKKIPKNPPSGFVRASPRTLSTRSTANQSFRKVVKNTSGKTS

SMILES | pKi (ROCK1) | pKi (ROCK2) | Ratio (PKA/ROCK2) (PKA)
CC(C)NC(=O)c1cccc(CNc2ncc(-c3ccnc(N)n3)c3c2CCO3)c1 [Example 11, 3-(((7-(2-Aminopyrimidin-4-yl)-2,3-dihydrofuro[3,2-c]pyridin-4-yl)amino)methyl)-N-isopropylbenzamide] | 7.52 to 8.52 | 7.52 to 8.52 | *** (ratio≥10)
Nc1nccc(-c2cnc(NCc3cccc(C(=O)NCC(F)(F)F)c3)c3c2OCC3)n1 [Example 12, 3-(((7-(2-Aminopyrimidin-4-yl)-2,3-dihydrofuro[3,2-c]pyridin-4-yl)amino)methyl)-N-(2,2,2-trifluoroethyl)benzamide] | 7.52 to 8.52 | ≥ 8.52 | *** (ratio≥10)
Nc1nccc(-c2cnc(NCc3cccc(C(=O)NCCCOC(F)F)c3)c3c2OCC3)n1 [Example 14, 3-(((7-(2-Aminopyrimidin-4-yl)-2,3-dihydrofuro[3,2-c]pyridin-4-yl)amino)methyl)-N-(3-(difluoromethoxy)propyl)benzamide] | ≥ 8.52 | ≥ 8.52 | *** (ratio≥10)
CC(C)OCCCNC(=O)c1cccc(CNc2ncc(-c3ccnc(N)n3)c3c2CCO3)c1 [Example 15, 3-(((7-(2-Aminopyrimidin-4-yl)-2,3-dihydrofuro[3,2-c]pyridin-4-yl)amino)methyl)-N-(3-isopropoxypropyl)benzamide] | ≥ 8.52 | ≥ 8.52 | *** (ratio≥10)
Nc1nccc(-c2cnc(NCc3cccc(C(=O)NCCCN4CCOCC4)c3)c3c2OCC3)n1 [Example 16, 3-(((7-(2-Aminopyrimidin-4-yl)-2,3-dihydrofuro[3,2-c]pyridin-4-yl)amino)methyl)-N-(3-morpholinopropyl)benzamide] | ≥ 8.52 | ≥ 8.52 | *** (ratio≥10)
CC(C)(O)CNC(=O)c1cccc(CNc2ncc(-c3ccnc(N)n3)c3c2CCO3)c1 [Example 17, 3-(((7-(2-Aminopyrimidin-4-yl)-2,3-dihydrofuro[3,2-c]pyridin-4-yl)amino)methyl)-N-(2-hydroxy-2-methylpropyl)benzamide] | ≥ 8.52 | ≥ 8.52 | *** (ratio≥10)
CO[C@H]1C[C@@H](NC(=O)c2cccc(CNc3ncc(-c4ccnc(N)n4)c4c3CCO4)c2)C1 [Example 18, 3-(((7-(2-aminopyrimidin-4-yl)-2,3-dihydrofuro[3,2-c]pyridin-4-yl)amino)methyl)-N-((1s,3s)-3-methoxycyclobutyl)benzamide] | ≥ 8.52 | ≥ 8.52 | *** (ratio≥10)
C[C@@H]1CCC[C@H](C)N1CCNC(=O)c1cccc(CNc2ncc(-c3ccnc(N)n3)c3c2CCO3)c1 [Example 19, 3-(((7-(2-Aminopyrimidin-4-yl)-2,3-dihydrofuro[3,2-c]pyridin-4-yl)amino)methyl)-N-(2-((2R,6S)-2,6-dimethylpiperidin-1-yl)ethyl)benzamide] | ≥ 8.52 | ≥ 8.52 | *** (ratio≥10)
CCOCCNC(=O)c1cccc(CNc2ncc(-c3ccnc(N)n3)c3c2CCO3)c1 [Example 20, 3-(((7-(2-Aminopyrimidin-4-yl)-2,3-dihydrofuro[3,2-c]pyridin-4-yl)amino)methyl)-N-(2-ethoxyethyl)benzamide] | ≥ 8.52 | ≥ 8.52 | *** (ratio≥10)
CNC(=O)c1cccc(CNc2ncc(-c3ccnc(N)n3)c3c2CCO3)c1 [Example 21, 3-(((7-(2-Aminopyrimidin-4-yl)-2,3-dihydrofuro[3,2-c]pyridin-4-yl)amino)methyl)-N-methylbenzamide] | 7.52 to 8.52 | ≥ 8.52 | *** (ratio≥10)
CC1(NC(=O)c2cccc(CNc3ncc(-c4ccnc(N)n4)c4c3CCO4)c2)CC1 [Example 22, 3-(((7-(2-Aminopyrimidin-4-yl)-2,3-dihydrofuro[3,2-c]pyridin-4-yl)amino)methyl)-N-(1-methylcyclopropyl)benzamide] | 7.52 to 8.52 | 7.52 to 8.52 | ** (5≤ratio<10)
Nc1nccc(-c2cnc(NCc3cccc(C(=O)N[C@H]4[C@@H]5COC[C@@H]54)c3)c3c2OCC3)n1 [Example 23, 3-(((7-(2-Aminopyrimidin-4-yl)-2,3-dihydrofuro[3,2-c]pyridin-4-yl)amino)methyl)-N-((1R,5S,6r)-3-oxabicyclo[3.1.0]hexan-6-yl)benzamide] | ≥ 8.52 | ≥ 8.52 | *** (ratio≥10)
Nc1nccc(-c2cnc(NCc3cccc(C(=O)NC4CN(C5COC5)C4)c3)c3c2OCC3)n1 [Example 24, 3-(((7-(2-aminopyrimidin-4-yl)-2,3-dihydrofuro[3,2-c]pyridin-4-yl)amino)methyl)-N-(1-(oxetan-3-yl)azetidin-3-yl)benzamide] | ≥ 8.52 | ≥ 8.52 | *** (ratio≥10)
Nc1nccc(-c2cnc(NCc3cccc(C(=O)NCC4CC4)c3)c3c2OCC3)n1 [Example 25, 3-(((7-(2-Aminopyrimidin-4-yl)-2,3-dihydrofuro[3,2-c]pyridin-4-yl)amino)methyl)-N-(cyclopropylmethyl)benzamide] | ≥ 8.52 | ≥ 8.52 | *** (ratio≥10)

The remaining lines, values ahead:

pKi (ROCK1) | pKi (ROCK2) | Ratio (PKA/ROCK2) (PKA) | SMILES
≥ 8.52 | ≥ 8.52 | *** (ratio≥10) | Nc1nccc(-c2cnc(NCc3cccc(C(=O)NCCN4CCCCC4)c3)c3c2OCC3)n1 [Example 5, 3-(((7-(2-Aminopyrimidin-4-yl)-2,3-dihydrofuro[3,2-c]pyridin-4-yl)amino)methyl)-N-(2-(piperidin-1-yl)ethyl)benzamide]
≥ 8.52 | ≥ 8.52 | *** (ratio≥10) | [2H]C([2H])([2H])OCCCNC(=O)c1cccc(CNc2ncc(-c3ccnc(N)n3)c3c2CCO3)c1 [Example 6, 3-(((7-(2-aminopyrimidin-4-yl)-2,3-dihydrofuro[3,2-c]pyridin-4-yl)amino)methyl)-N-(3-(methoxy-d3)propyl)benzamide]
≥ 8.52 | ≥ 8.52 | *** (ratio≥10) | Nc1nccc(-c2cnc(NCc3cccc(C(=O)NC4CCOCC4)c3)c3c2OCC3)n1 [Example 7, 3-(((7-(2-Aminopyrimidin-4-yl)-2,3-dihydrofuro[3,2-c]pyridin-4-yl)amino)methyl)-N-(tetrahydro-2H-pyran-4-yl)benzamide]
≥ 8.52 | ≥ 8.52 | *** (ratio≥10) | COCCCNC(=O)c1cccc(CNc2ncc(-c3ccnc(N)n3)c3c2CCO3)c1 [Example 8, 3-(((7-(2-Aminopyrimidin-4-yl)-2,3-dihydrofuro[3,2-c]pyridin-4-yl)amino)methyl)-N-(3-methoxypropyl)benzamide]
≥ 8.52 | ≥ 8.52 | *** (ratio≥10) | COCCNC(=O)c1cccc(CNc2ncc(-c3ccnc(N)n3)c3c2CCO3)c1 [Example 9, 3-(((7-(2-Aminopyrimidin-4-yl)-2,3-dihydrofuro[3,2-c]pyridin-4-yl)amino)methyl)-N-(2-methoxyethyl)benzamide]
≥ 8.52 | ≥ 8.52 | ** (5≤ratio<10) | Nc1nccc(-c2cnc(NCc3cccc(C(=O)NC4CC(F)(F)C4)c3)c3c2OCC3)n1 [Example 10, 3-(((7-(2-Aminopyrimidin-4-yl)-2,3-dihydrofuro[3,2-c]pyridin-4-yl)amino)methyl)-N-(3,3-difluorocyclobutyl)benzamide]
≥ 8.52 | ≥ 8.52 | *** (ratio≥10) | CN1CCC(NC(=O)c2cccc(CNc3ncc(-c4ccnc(N)n4)c4c3CCO4)c2)CC1 [Example 13, 3-(((7-(2-Aminopyrimidin-4-yl)-2,3-dihydrofuro[3,2-c]pyridin-4-yl)amino)methyl)-N-(1-methylpiperidin-4-yl)benzamide]
